This is an account of results in paper PMC11504230, “Comparative Properties of Helical and Linear Amphipathicity of Peptides Composed of Arginine, Tryptophan, and Valine” (Antibiotics, 2024).

One data set concerns E. faecium. It counts as cell-based. The note with it: 18 h. As for the experimental part: (§1) To examine antibacterial activity, we used minor modifications of a standard growth inhibition assay endorsed by the Clinical and Laboratory Standards Institute (CLSI), as previously described. Bacterial inocula for testing were prepared from exponential growth phase by diluting overnight cultures at 1:100 with fresh Tryptic soy broth (TSB) (Millipore Sigma, USA, Cat. No. 22092-500G) and incubating for an additional 3–4 h. Bacteria were spun at 3000× g for 10 min and the pellet was resuspended in phosphate-buffered saline (PBS) (Millipore Sigma, St Louis, MO, USA, Cat. No. P4417) to determine bacterial turbidity using a Den-1B densitometer (Grant Instruments, Beaver Falls, PA, USA) at 0.5 McFarland (unit of bacterial density) corresponding to […]. The prepared bacteria were incubated with each of the indicated peptides at a maximum test concentration of 16 µM and serially diluted in MHB2 and RPMI 1640 (Corning, NY, USA, Cat. No. 15-040-CM) at a 1:1 ratio. The plates were kept in an 8-drawer incubator for 18 h at 37 °C. A robotic system takes a plate from the drawer every hour and feeds a plate reader, which records the kinetics of bacterial growth at 570 nm to examine growth inhibition in real time (BioTek Instruments, Winooski, VT, USA). The minimum inhibitory concentration or MIC is the minimum peptide concentration that prevented bacterial growth, and it is objectively indicated by a flat (horizontal) line in the bacterial growth kinetic graph. Most assays are completed in duplicate. To assay for anti-biofilm activities, the 96-well plate from the growth inhibition assay is incubated for an additional 6 h (24 h total). The biomass was detected with crystal violet using a plate reader at A570, as previously described.
(§2) Figure 2 Comparative antibacterial activities of the H-RWV and L-RWV series. The 2 series were compared against MDR strains of 6 organisms as indicated. The test medium was composed of physiologically relevant RFM (60% RPMI plus 10% fetal bovine serum or FBS and 30% cation-adjusted MHB); endogenous AMP control was Indolicidin (Indo); small-molecule antibiotic controls were cefazolin, ceftazidime (Ceft), and meropenem (Mero). MIC, minimum inhibitory concentration with means represented by the black and red horizontal bars, which are used to determine the MOLs (minimum optimal lengths) indicated by the red and black arrows. (A–F) is based on the test organism as indicated. Data are representative of 2 independent trials. Corresponding Table 2 provides the mean MICs for the strains of each organism. The numbers stand for each peptide: 8, L/H-RWV8; 10, L/H-RWV10, etc.; red bar, mean MIC of L-RWV peptides and black bars, mean MIC of H-RWV peptides.

For the next data set, the system named is A. baumannii. It counts as cell-based. To be noted: 18 h. The protocol:
as §1, §2

In another data set the test system is Enterobacter spp. It counts as cell-based. To be noted: 18 h. The protocol:
as §1, §2

The subject of another data set is P. aeruginosa. It counts as cell-based. To be noted: 18 h. The protocol:
as §1, §2

The subject of a further data set is K. pneumoniae. It counts as cell-based. The note with it: 18 h. The protocol: as §1, §2
For another data set, the system named is E. coli. It counts as cell-based. To be noted: 18 h. The protocol: as §1, §2
The test system of another data set is S. aureus. It counts as cell-based. The note with it: 18 h. As for the experimental part:
as §1, §2

In data set [1] the test system is S. aureus (SA719) biofilm. It counts as cell-based. To be noted: 24 h. The protocol: as §1
Figure 3 Antibiofilm activities of the […] peptides. MBEC or minimum biofilm elimination concentration is the minimum concentration at which no biomass was detected by the crystal violet method. Standard deviations reflect differences between 2 independent trials. The dashed line is to clarify the mid-point between 0 and 5.

A further data set has as its system human red blood cells. The data set can be described thus: Red blood cell lysis. It counts as cell-based. The note with it: H-RWV16 versus L-RWV12. The protocol: Lytic effects on human red blood cells were examined as previously described. Briefly, RBCs were separated by histopaque differential centrifugation using blood anonymously obtained from Vitalant (Pittsburgh, PA, USA). For RBC lysis assay, the isolated RBCs were resuspended in PBS at a concentration of 5%. The peptides were serially diluted 2-fold in 100 µL of PBS with a starting concentration of 32 µM. A volume of 100 µL of the prepared 5% RBC solution was then added for a final concentration of 2.5% RBC and incubated for 1 h. After incubation, the plates were centrifuged at 1000× g for 7 min and the supernatant was removed to measure its OD. In parallel, a standard curve of RBC lysis was generated by lysing the RBCs with deionized water at […] RBC dilutions of 10, 20, 30, 40, 50, 60, 70, 80, 90, and 100% to determine the percentage of RBC lysis in the test samples. Both the treated test samples and standard curve were read at A570. Three independent trials of the experiment were conducted.
Figure 4 Human RBC lytic effects of the […] peptides. Indolicidin (Indo) was used as control; RBC lysis was assayed in PBS as described in Methods. For clarity, the dashed line indicates the 10% lysis mark across the graph as a critical point between minor (<10%) and moderate (>10%) RBC lysis.

Ends that are not written are not given here.

On to RRRRRRRRWWWWVVVV [L-RWV16], for which the “Mean MIC, E. faecium” value in the data set with E. faecium worked out at 32 µM. Further, the “Mean MIC, A. baumannii” value in the data set with A. baumannii turned out to be 21 ± 11 µM. Moreover, in the data set with Enterobacter spp., the “Mean MIC, Enterobacter spp.” value turned out to be 32 µM. Moreover, the “Mean MIC, P. aeruginosa” value in the data set with P. aeruginosa was determined as 32 µM. Besides, the “Mean MIC, K. pneumoniae” value in the data set on K. pneumoniae stood at 32 µM. Besides, in the data set on E. coli, the “Mean MIC, E. coli” value is 24 ± 10 µM. Further, in the data set with S. aureus, the “Mean MIC, S. aureus” value amounted to 32 µM.

For the sequence RRRRRRRWWWWVVV [L-RWV14], in the data set on E. faecium, the “Mean MIC, E. faecium” value was determined as 19 ± 11 µM. For the same sequence, in the data set on A. baumannii, the “Mean MIC, A. baumannii” value was 7.4 ± 6.2 µM. Also, the “Mean MIC, Enterobacter spp.” value with Enterobacter spp. amounted to 16.9 ± 14 µM. Moreover, the “Mean MIC, P. aeruginosa” value with P. aeruginosa is listed as 21 ± 9 µM. For the same sequence, the “Mean MIC, K. pneumoniae” value in the data set on K. pneumoniae came out at 3 ± 1 µM. In addition, the “Mean MIC, E. coli” value with E. coli turned out to be 4.4 ± 2.7 µM. The “Mean MIC, S. aureus” value in the data set with S. aureus amounted to 3 ± 1 µM. Also, in data set [1], the “MBEC (minimum biofilm elimination concentration, no detectable biomass)” value was 2.6 ± 1.2 µM.

As to RRRRRRWWWWVV [L-RWV12], the “Mean MIC, E. coli” value in the data set with E. coli is 4.6 ± 1.6 µM. Moreover, the “MBEC (minimum biofilm elimination concentration, no detectable biomass)” value in data set [1] turned out to be 2.5 ± 1.3 µM.

Regarding RRRRRWWWWV [L-RWV10], in the data set on E. faecium, the “Mean MIC, E. faecium” value is given as 21 ± 9.5 µM. In the data set with A. baumannii, the “Mean MIC, A. baumannii” value is given as 8.5 ± 3.6 µM. The “Mean MIC, Enterobacter spp.” value with Enterobacter spp. came to 32 µM. Besides, in the data set on P. aeruginosa, the “Mean MIC, P. aeruginosa” value is 22 ± 7.7 µM. The “Mean MIC, K. pneumoniae” value in the data set with K. pneumoniae was 26 ± 8.2 µM. In the data set with E. coli, the “Mean MIC, E. coli” value was 8 µM. For the same sequence, in the data set on S. aureus, the “Mean MIC, S. aureus” value turned out to be 26 ± 8 µM.

In the case of RRRRWWWW [L-RWV8], the “Mean MIC, E. faecium” value with E. faecium is given as 30 ± 5 µM. Further, the “Mean MIC, A. baumannii” value with A. baumannii stood at 10.2 ± 0.9 µM. In addition, in the data set on Enterobacter spp., the “Mean MIC, Enterobacter spp.” value came to 30.2 ± 5.3 µM. In addition, the “Mean MIC, P. aeruginosa” value in the data set with P. aeruginosa is listed as 30 ± 5.2 µM. In addition, the “Mean MIC, K. pneumoniae” value in the data set with K. pneumoniae is 20 ± 7.4 µM. The “Mean MIC, E. coli” value with E. coli was 16 µM. Further, in the data set on S. aureus, the “Mean MIC, S. aureus” value worked out at 20. ± 0.7 µM.

Regarding RRVWRWVRRVWRWVRR [H-RWV16], the “Lytic effect on human RBCs relative to L-RWV12” value with human red blood cells turned out to be 3 fold.

Turning to RRVWRWVRRWWR [H-RWV12], the “Mean MIC, E. faecium” value with E. faecium is reported as 28 ± 10 µM. Besides, the “Mean MIC, A. baumannii” value with A. baumannii is recorded as 6 ± 2.3 µM. Also, the “Mean MIC, Enterobacter spp.” value in the data set on Enterobacter spp. was 28 ± 7.4 µM. Besides, the “Mean MIC, P. aeruginosa” value in the data set on P. aeruginosa was determined as 24 ± 8 µM. Further, the “Mean MIC, K. pneumoniae” value in the data set on K. pneumoniae worked out at 18 ± 12 µM. Further, the “Mean MIC, E. coli” value in the data set on E. coli was determined as 6.4 ± 2.2 µM. Besides, the “Mean MIC, S. aureus” value in the data set with S. aureus is given as 18 ± 12 µM. The “MBEC (minimum biofilm elimination concentration, no detectable biomass)” value in data set [1] amounted to 2 µM.

For RRVWRWVRRWWRRV [H-RWV14], the RBC lysis came to 3%. Further, the “Mean MIC, E. faecium” value in the data set with E. faecium is on record as 17 ± 12 µM. The “Mean MIC, A. baumannii” value in the data set on A. baumannii worked out at 8 ± 5.6 µM. Besides, in the data set on Enterobacter spp., the “Mean MIC, Enterobacter spp.” value is recorded as 7.2 ± 5.6 µM. Besides, the “Mean MIC, P. aeruginosa” value in the data set on P. aeruginosa is on record as 12 ± 4 µM. Also, the “Mean MIC, K. pneumoniae” value with K. pneumoniae is on record as 7.5 ± 12 µM. Also, the “Mean MIC, S. aureus” value in the data set with S. aureus came out at 7.5 ± 12 µM. In addition, in data set [1], the “MBEC (minimum biofilm elimination concentration, no detectable biomass)” value was 1.7 ± 0.5 µM.

On to RRWWRRVWRW [H-RWV10], for which the “Mean MIC, E. faecium” value with E. faecium was determined as 19 ± 13 µM. The “Mean MIC, A. baumannii” value with A. baumannii was 22 ± 12 µM. For the same sequence, the “Mean MIC, Enterobacter spp.” value with Enterobacter spp. is 32 µM. The “Mean MIC, P. aeruginosa” value in the data set on P. aeruginosa came to 24 ± 8 µM. Moreover, the “Mean MIC, K. pneumoniae” value with K. pneumoniae is reported as 29 ± 6.5 µM. For the same sequence, in the data set on E. coli, the “Mean MIC, E. coli” value was 22 ± 8.8 µM. Moreover, in the data set on S. aureus, the “Mean MIC, S. aureus” value came out at 29 ± 6.5 µM.

For the sequence RRWWRRWW [H-RWV8], in the data set with E. faecium, the “Mean MIC, E. faecium” value worked out at 32 µM. In the data set on A. baumannii, the “Mean MIC, A. baumannii” value worked out at 24 ± 9.2 µM. Moreover, the “Mean MIC, Enterobacter spp.” value in the data set with Enterobacter spp. came out at 32 µM. Also, the “Mean MIC, P. aeruginosa” value in the data set with P. aeruginosa came to 27 ± 7.5 µM. The “Mean MIC, K. pneumoniae” value in the data set with K. pneumoniae came out at 29 ± 7.1 µM. The “Mean MIC, E. coli” value in the data set with E. coli was found to be 24 ± 8.8 µM. Moreover, the “Mean MIC, S. aureus” value with S. aureus stood at 29 ± 7 µM.
